Data reported in US5169855A, “Piperidine ether derivatives as psychotropic drugs or plant fungicides” (priority 1990, dated 1992).

How the values were obtained:
[1] = system: isolation-induced aggressive behavior; experiment: Isolation-Induced Aggression in Mice; type: in vivo, mouse (male Balb/c); details: po
Experimental: Male Balb/c mice (Charles River) were used. […] Isolated mice failing to consistently attack an intruder were eliminated from the colony.
Drug testing was carried out by treating the isolated mice with test drugs or standards. Fifteen min after dosing with drugs by the oral route (po), one isolated mouse was removed from its home cage and placed in the home cage of another isolate. Scoring was a yes or no response for each pair. A maximum of 3 min was allowed for an attack and the pair was separated immediately upon an attack. Selection of home cage and intruder mice was randomized for each test. Mice were treated and tested twice a week with at least a 2 day washout period between treatments.

[2] = system: Botrytis cinerea; experiment: Test E: cucumber grey mold disease control (cucumber seedlings); type: in vivo; details: sprayed at 1000 to 2 ppm (rate not given per compound)
Experimental: (§1) The test compounds were dissolved in acetone in an amount equal to 6% of the final volume and then suspended at a concentration of from 1000 to 2 ppm in purified water containing 250 ppm of the surfactant TREM 014 (polyhydric alcohol esters). This suspension was sprayed to the point of run-off on cucumber seedlings. The following day plants were inoculated with a spore suspension of Botrytis cinerea, the causal agent of cucumber grey mold, and incubated in a saturated humidity chamber at 20° C. for 48 hours and then in a greenhouse for 5 days, when disease ratings were made.

[3] = system: Phytophthora infestans; type: in vivo; details: tomato late blight; sprayed at 1000 to 2 ppm (rate not given per compound)
[4] = system: Cercosporidum personatum; experiment: Test D: peanut late leaf spot disease control (peanut seedlings); type: in vivo; details: sprayed at 1000 to 2 ppm (rate not given per compound)
Experimental: The test compounds were dissolved in acetone in an amount equal to 6% of the final volume and then suspended at a concentration of from 1000 to 2 ppm in purified water containing 250 ppm of the surfactant TREM 014 (polyhydric alcohol esters). This suspension was sprayed to the point of run-off on peanut seedlings. The following day plants were inoculated with a spore suspension of Cercosporidum personatum, the causal agent of peanut late leaf spot, and incubated in a saturated humidity chamber at 22° C. for 24 hours and then in a high humidity chamber at 27° C. for 7 days, and then in a growth chamber at 29° C. for 7 days, when disease ratings were made.

[5] = system: Erysiphe graminis f. sp. tritici; experiment: Test A: wheat powdery mildew disease control (wheat seedlings); type: in vivo; details: sprayed at 1000 to 2 ppm (rate not given per compound)
Experimental: as §1, with “on wheat” for “on cucumber”, “spore dust” for “spore suspension”, “of Erysiphe graminis f. sp. tritici,” for “of Botrytis cinerea,”, “of wheat powdery mildew,” for “of cucumber grey mold,”, “a growth” for “a saturated humidity”, “for 7” for “for 48 hours and then in a greenhouse for 5”

[6] = system: Rhizoctonia solani; experiment: Test I: rice sheath blight disease control (rice seedlings); type: in vivo; details: sprayed at 1000 to 2 ppm (rate not given per compound)
Experimental: The test compounds were dissolved in acetone in an amount equal to 6% of the final volume and then suspended at a concentration of from 1000 to 2 ppm in purified water containing 250 ppm of the surfactant TREM 014 (polyhydric alcohol esters). This suspension was sprayed to the point of run-off on rice seedlings. The following day plants were inoculated with a mycelial suspension of Rhizoctonia solani, the causal agent of rice sheath blight, and incubated in a saturated humidity chamber at 27° C. for 48 hours and then in a growth chamber at 29° C. for 4 days, when disease ratings were made.

[7] = system: Venturia inaequalis; experiment: Test C: apple scab disease control (apple seedlings); type: in vivo; details: sprayed at 1000 to 2 ppm (rate not given per compound)
Experimental: (§2) The test compounds were dissolved in acetone in an amount equal to 6% of the final volume and then suspended at a concentration of from 1000 to 2 ppm in purified water containing 250 ppm of the surfactant TREM 014 (polyhydric alcohol esters). This suspension was sprayed to the point of run-off on apple seedlings. The following day plants were inoculated with a spore suspension of Venturia inaequalis, the causal agent of apple scab, and incubated in a saturated humidity chamber at 20° C. for 24 hours and then in a growth chamber at 22° C. for 11 days, when disease ratings were made.

[8] = system: Plasmopara viticola; experiment: Test G: grape downy mildew disease control (grape seedlings); type: in vivo; details: sprayed at 1000 to 2 ppm (rate not given per compound)
Experimental: as §2, with “grape” for “apple”, “Plasmopara viticola,” for “Venturia inaequalis,”, “grape downy mildew,” for “apple scab,”, “dew” for “saturated humidity”, “a 20°” for “at 22°”, “7” for “11”

[9] = system: Pyricularia oryzae; type: in vivo; details: rice blast; sprayed at 1000 to 2 ppm (rate not given per compound)
[10] = system: Puccinia recondita; experiment: Test B: wheat leaf rust disease control (wheat seedlings); type: in vivo; details: sprayed at 1000 to 2 ppm (rate not given per compound)
Experimental: The test compounds were dissolved in acetone in an amount equal to 6% of the final volume and then suspended at a concentration of from 1000 to 2 ppm in purified water containing 250 ppm of the surfactant TREM 014 (polyhydric alcohol esters). This suspension was sprayed to the point of run-off on wheat seedlings.

[11] = system: (+)-N-allylnormetazocine-induced turning; experiment: (+)-N-Allylnormetazocine-Induced Turning Behavior in Rats; type: in vivo, rat (male Sprague-Dawley); details: p.o.

| SMILES | inhibiting the isolation-induced aggressive behavior (in words) [1] | disease control rating, Test E [2] | disease control rating, Test F [3] | disease control rating, Test D [4] | disease control rating, Test A [5] | disease control rating, Test I [6] | disease control rating, Test C [7] | disease control rating, Test G [8] | disease control rating, Test H [9] | disease control rating, Test B [10] | antagonism of N-allylnormetazocine-induced rotation (in words) [11] |
| --- | --- | --- | --- | --- | --- | --- | --- | --- | --- | --- | --- |
| Fc1ccc(OCC2CCN(Cc3ccc(Cl)cc3)CC2)cc1 [Example 138] | potent activities | – | – | – | – | – | – | – | – | – | – |
| Fc1ccc(COCC2CCN(Cc3cccc4ccccc34)CC2)cc1 [Example 196] | – | 0% | 26% | 0% | 0% | 0% | 90% | 40% | 0% | – | – |
| COc1ccc(COCC2CCN(Cc3ccccc3)CC2)cc1 [Example 182] | – | – | 0% | 0% | 63% | 0% | 0% | – | 0% | 27% | – |
| CCCCCCN1CCC(COCc2ccc(F)cc2)CC1 [Example 312] | – | 0% | 0% | 51% | 97% | 0% | 16% | – | 0% | 27% | – |
| Fc1ccc(COCC2CCN(Cc3ccc(Cl)cc3)CC2)cc1 [Example 188] | – | 18% | 8% | 82% | 100% | 0% | 93% | 89% | 0% | 72% | – |
| Oc1ccc(CN2CCC(COCc3ccc(F)cc3)CC2)cc1 [Example 189] | – | 0% | 0% | 75% | 99% | 0% | 86% | – | 0% | 26% | – |
| c1ccc(COCC2CCN(Cc3ccccc3)CC2)cc1 [Example 185] | – | 0% | 0% | 26% | 29% | 0% | 28% | – | 0% | 0% | – |
| Fc1ccc(COCC2CCN(Cc3ccccc3)CC2)cc1 [Example 205] | – | 33% | 0% | 30% | 94% | 0% | 66% | – | 0% | 35% | – |
| O=C(CCCN1CCC(O)(c2ccc(Cl)cc2)CC1)c1ccc(F)cc1 [Haloperidol, reference compound] | potent activities | – | – | – | – | – | – | – | – | – | potently antagonized |
| Fc1ccc(COCC2CCN(CCCc3ccccc3)CC2)cc1 [Example 313] | – | 0% | 0% | 91% | 97% | 0% | 40% | – | 0% | 29% | – |
| Fc1ccc(COCC2CCN(Cc3ccccc3)CC2)cc1 [Example 181] | potent activities | – | 0% | 82% | 87% | 0% | 55% | – | 0% | 37% | – |
